Source: the NIST ThermoML archive (doi:10.1016/j.jct.2007.09.011)

Experiments:
[1] = refractive index (Na D-line) (dimensionless); xn = mol fraction of the nth substance listed; settings: 298.15 K, 101 kPa, Liquid
[2] = xn = mol fraction of the nth substance listed; settings: 101 kPa, Liquid
[3] = refractive index (Na D-line) (dimensionless); settings: 298.15 K; 101.33 kPa; Liquid
[4] = 101 kPa, Liquid

COCCOCCO [2-(2-methoxyethoxy)ethanol] + CCCCCCCC[n+]1ccn(C)c1.F[B-](F)(F)F
[1]
Settings | refractive index
x2 = 0 | 1.4242
x2 = 0.0088 | 1.4227
x2 = 0.0165 | 1.4251
x2 = 0.0745 | 1.4271
x2 = 0.1611 | 1.4288
x2 = 0.2555 | 1.4298
x2 = 0.3459 | 1.4304
x2 = 0.4603 | 1.4308
x2 = 0.6468 | 1.4312
x2 = 0.8198 | 1.4314
x2 = 0.9227 | 1.4317
x2 = 0.9912 | 1.4318

mass density [kg/m3], [2]
Settings | 298.15 K | 308.15 K | 318.15 K
x2 = 0 | 1014.87 | 1005.99 | –
x2 = 0.0088 | 1017.27 | 1008.44 | 999.55
x2 = 0.0165 | 1019.28 | 1010.49 | 1001.65
x2 = 0.0745 | 1032.37 | 1023.86 | 1015.33
x2 = 0.1611 | 1046.73 | 1038.56 | 1030.36
x2 = 0.2555 | 1058.05 | 1050.15 | 1042.23
x2 = 0.3459 | 1066.48 | 1058.76 | 1051.05
x2 = 0.4603 | 1075.27 | 1067.73 | 1060.25
x2 = 0.6468 | 1086.77 | 1079.5 | 1072.31
x2 = 0.8198 | 1094.83 | 1087.77 | 1080.74
x2 = 0.9227 | 1098.58 | 1091.61 | 1084.65
x2 = 0.9912 | 1100.8 | 1093.85 | 1086.95

CCCCCCCC[n+]1ccn(C)c1.F[B-](F)(F)F [1-methyl-3-octylimidazolium tetrafluoroborate] + COCCO
[1]
Settings | refractive index
x1 = 0.0106 | 1.4015
x1 = 0.0477 | 1.4057
x1 = 0.1083 | 1.4108
x1 = 0.1495 | 1.4134
x1 = 0.2062 | 1.4163
x1 = 0.2827 | 1.4193
x1 = 0.3204 | 1.4208
x1 = 0.542 | 1.4258
x1 = 0.7354 | 1.4285
x1 = 0.9632 | 1.4312
x1 = 0.9929 | 1.4318
x1 = 1 | 1.4319

mass density [kg/m3], [2]
Settings | 298.15 K | 308.15 K | 318.15 K
x1 = 0.0106 | 965.72 | 956.59 | 947.31
x1 = 0.0477 | 983.08 | 974.21 | 965.56
x1 = 0.1083 | 1004.86 | 996.43 | 987.84
x1 = 0.1495 | 1016.31 | 1007.97 | 999.62
x1 = 0.2062 | 1029.2 | 1021.09 | 1012.99
x1 = 0.2827 | 1042.98 | 1035.09 | 1027.25
x1 = 0.3204 | 1048.69 | 1041.05 | 1033.14
x1 = 0.542 | 1073.51 | 1066.16 | 1058.83
x1 = 0.7354 | 1087.07 | 1079.83 | 1072.61
x1 = 0.9632 | 1098.9 | 1092.03 | 1085.14
x1 = 0.9929 | 1098.25 | 1091.42 | 1084.47
x1 = 1 | 1101.08 | 1094.13 | 1087.24

COCCO [2-methoxyethan-1-ol] + CCCCCCCC[n+]1ccn(C)c1.F[B-](F)(F)F
Settings | refractive index
[1], x2 = 0 | 1.4004

[2], x2 = 0
Settings | mass density [kg/m3]
298.15 K | 960.05
308.15 K | 950.81
318.15 K | 941.45

CCCCCCCC[n+]1ccn(C)c1.F[B-](F)(F)F [1-methyl-3-octylimidazolium tetrafluoroborate]
Settings | refractive index
[3] | 1.4319

[4]
Settings | mass density [kg/m3]
298.15 K | 1101.08
308.15 K | 1094.13
318.15 K | 1087.24

COCCOCCO [2-(2-methoxyethoxy)ethanol]
Settings | refractive index
[3] | 1.4242

[4]
Settings | mass density [kg/m3]
298.15 K | 1014.87
308.15 K | 1005.99
